Results taken from US10765625B2, “Knottin-drug conjugates and methods of using the same” (THE BOARD OF TRUSTEES OF THE LELAND STANFORD JUNIOR …, priority 2016, dated 2020).

Experiments:
[1] = test system: D270 glioblastoma cells; assay: Cell proliferation, CCK-8 colorimetric assay; type: cell-based; conditions: 4 d after treatment, read-out: ED50 (nM), cell growth inhibition
Procedure: (§1) U87MG, and PANC-1 cells were grown in Dulbecco's Modified Eagle Medium (DMEM) with 10% fetal bovine serum (FBS) and 1% penicillin/streptomycin. MDA-MB-468 cells were grown in DMEM and Ham's F-12 medium (DMEM/F12) with 10% FBS and 1% penicillin/streptomycin. A2780 and BxPC3 cells were grown in Roswell Park Memorial Institute medium (RPMI) 1640+L-glutamine, with 10% FBS and 1% penicillin/streptomycin. D270 cells were grown in MEM (Richter's modification, no phenol red) with 10% FBS and 0.1% Gentamicin. Unless otherwise specified, cells were incubated at 37° C., 5% CO2. Flow cytometry was performed using an EMD Millpore Guava EasyCyte 8HT flow cytometer and the resulting data were evaluated using FlowJo software provided by TreeStar, Inc. Cell proliferation was measured using the Dojindo Cell Counting Kit-8 by replacing the media in each well with 100 μL of media containing 10% WST-8. After incubation for 1 h at 37° C., absorbance, A, at 450 nm was measured with a BioTek Synergy H4 microtiter plate reader. The background signal of CCK-8 alone was subtracted from all samples. Cell proliferation was then expressed as a percentage of absorbance relative to the control of untreated cells (Equation 2). Nonlinear regression analysis was performed using GraphPad Prism.
(§2) Having identified KDC 5d as a potent inhibitor of U87MG cells with desirable payload-release properties, its efficacy against a variety of other cell lines in comparison with Gemcitabine (3) was next tested. Cells were seeded in a 96-well plate at a density of 2,500 cells per well and grown overnight at 37° C., 5% CO2 in the media described in Section 1.3. Cells were subsequently treated with 100 μL of fresh media, containing 50 nM of 3 or 5d. Cells were incubated at 37° C., 5% CO2 for 4 d. Cell proliferation was measured using the Cell Counting Kit-8 by replacing the media in each well with 100 μL of media containing 10% WST-8. After incubation for 1 h at 37° C., absorbance at 450 nm was measured with a Synergy H4 microtiter plate reader. Cell proliferation was measured according to the method described in Section 1.3. Error bars represent the standard deviation of experiments performed in triplicate.

[2] = test system: MDA-MB-468 breast cancer cells; assay: Cell proliferation, CCK-8 colorimetric assay; type: cell-based; conditions: 4 d after treatment, read-out: ED50 (nM), cell growth inhibition
Procedure: as §1, §2

[3] = test system: PANC-1 pancreatic cancer cells; assay: Cell proliferation, CCK-8 colorimetric assay; type: cell-based; conditions: 4 d after treatment, read-out: ED50 (nM), cell growth inhibition
Procedure: as §1, §2

[4] = test system: A2780 ovarian cancer cells; assay: Cell proliferation, CCK-8 colorimetric assay; type: cell-based; conditions: 4 d after treatment, read-out: ED50 (nM), cell growth inhibition
Procedure: as §1, §2

[5] = test system: BxPC3 pancreatic cancer cells; assay: Cell proliferation, CCK-8 colorimetric assay; type: cell-based; conditions: 4 d after treatment, read-out: ED50 (nM), cell growth inhibition
Procedure: as §1, §2

[6] = test system: U87MG cells; assay: Premature drug release study: cell proliferation (CCK-8) with hENT1 inhibitor 6 co-administered; type: cell-based; conditions: for Fold Increase in ED50 in U87MG Cells: ED50 with 6 / ED50 without 6, minus 1
Procedure: as §1
The relative extent of premature drug-release in the cases of 5a, 5c, and 5d was next determined in order to identify the linker best-suited for delivering the drug payload intracellularly. An established technique for blocking the cellular uptake of Gemcitabine by using S (4-nitrobenzyl)-6-thioinosine (6) was employed, which is known to inhibit human equilibrative nucleoside transporters, such as hENT1. Because hENT1 is a critical regulator of the cellular internalization of Gemcitabine, it was reasoned that by inhibiting its activity with 6, the cytotoxic effect of any drug payload that was released in the extracellular environment could be diminished. It was anticipated that this would allow the distinction between KDCs that were potent due to the undesirable release of Gemcitabine outside of the cell from those that released Gemcitabine intracellularly (FIG. 6). The extent of premature drug release in the extracellular environment was studied by inhibiting activity of nucleoside transporters (such as hENT1) of U87MG cells through the use of the hENT1 inhibitor S-(4-nitrobenzyl)-6-thioinosine (6). […] In a similar fashion, it was expected that for KDCs which released a significant amount of the drug payload in the extracellular environment, an increase in the concentration of 6 should result in a concomitant increase in ED50 value.
Media used to prepare varying concentrations of drug, protein, or protein-drug conjugate also contained varying concentrations of the hENT1 inhibitor, 6. Additionally, prior to treatment, cell were incubated at 37° C., 5% CO2 with fresh media containing the varying concentrations of 6 for 2 h. Cell proliferation was measured using the Cell Counting Kit-8 by replacing the media in each well with 100 μL of media containing 10% WST-8. After incubation for 1 h at 37° C., absorbance at 450 nm was measured with a Synergy H4 microtiter plate reader. ED50 values were determined by nonlinear regression analysis. Example dose-response curves for 3 (FIG. 7) and 5d (FIG. 8) are provided. Cell proliferation was measured according to the method described in Section 1.3. Error bars represent the standard deviation of experiments performed in triplicate.
These values were normalized as Fold Increase in ED50 (defined in Equation 2) by dividing the ED50 of each drug when 6 was co-administered at concentration=C by the ED50 of that same drug when no 6 was added, then subtracting 1 (thus, a “0-fold increase” would mean no increase, while a “1-fold increase” would mean that the ED50 value had doubled). Fold Increase in ED50 for each drug at each concentration of 6 is provided in Table 5, and these values were used to generate FIG. 9.

[7] = test system: U87MG cells; assay: Competition binding assay with AF488-labeled EETI-2.5F (AF488-1), flow cytometry; conditions: competition with 1 nM AF488-1, 4° C., 3 hours, read-out: IC50 (nM), binding affinity
Procedure: Once the knottin-drug conjugates 5a-d were prepared, their binding affinity to U87MG glioblastoma cells, which are known to have elevated expression of tumor-associated integrins, was tested. […] To measure the relative binding affinities of knottins 1 and 2 and KDCs 5a-d, competition binding assays were performed using AlexaFluor 488-conjugated EETI-2.5F (AF488-1) as previously described (J. W. Kim, et al., J. Am. Chem. Soc. 2015, 137, 6-9). Cells (5×10^4 per sample) were detached with 0.05% Trypsin-EDTA, washed with IBB (25 mM Tris pH 7.4, 150 mM NaCl, 2 mM CaCl2, 1 mM MgCl2, 1 mM MnCl2, and 0.1% bovine serum albumin), and incubated with 1 nM AF488-1 and varying concentrations of competitors in 800 μL of IBB at 4° C. for 3 hours. The cells were washed twice with 800 μL of PBSA (phosphate buffered saline containing 0.1% bovine serum albumin) and the fluorescence of the surface-bound AF488-1 was determined using flow cytometry. The fluorescence was normalized to that of cells treated with AF488-1 alone to obtain the fraction bound. Half-maximal inhibitory concentration (IC50) values were determined by nonlinear regression analysis. Error bars represent the standard deviation of experiments performed in triplicate.

## CC(C)C[C@@H]1NC(=O)[C@@H]2CSSC[C@@H](C(=O)NCC(=O)O)NC(=O)[C@H](Cc3ccccc3)NC(=O)CNC(=O)[C@H](CC(N)=O)NC(=O)[C@@H]3CCCN3C(=O)CNC(=O)[C@@H]3CSSC[C@H](NC(=O)[C@H]([C@@H](C)O)NC(=O)[C@H](CC(C)C)NC(=O)[C@@H]4CCCN4C(=O)[C@@H]4CCCN4C(=O)[C@H](CC(N)=O)NC(=O)[C@H](CC(=O)O)NC(=O)CNC(=O)[C@H](CCCNC(=N)N)NC(=O)[C@@H]4CCCN4C(=O)[C@H](CCCNC(=N)N)NC(=O)[C@@H]4CCCN4C(=O)[C@@H](NC(=O)CN)CSSC[C@H](NC(=O)CNC(=O)[C@H](C)NC1=O)C(=O)N[C@@H](C(C)C)C(=O)N3)C(=O)N[C@@H](CCCn1cc(CCC(=O)N[C@H](C(=O)N[C@@H](C)C(=O)Nc3ccc(COC(=O)Nc4ccn([C@@H]5O[C@H](CO)[C@@H](O)C5(F)F)c(=O)n4)cc3)C(C)C)nn1)C(=O)N[C@@H](CCC(N)=O)C(=O)N[C@@H](CC(=O)O)C(=O)N[C@@H](CO)C(=O)N[C@@H](CC(=O)O)C(=O)N2 [5d]
[1]
  EC50: 7.9 ± 0.8 nM
[2]
  EC50: 0.6 ± 0.1 nM
[3]
  EC50: 2.1 ± 0.2 nM
[4]
  EC50: 2.3 ± 0.5 nM
[5]
  EC50: 1.8 ± 0.8 nM
[6]; U87MG cells, increasing concentrations of 6 up to 10 μM
  Effect of hENT1 inhibitor 6 on potency (ED50) (in words): no effect on the potency
[6]; [6] = 0 nM
  Fold Increase in ED50 in U87MG Cells: 0
[6]; [6] = 1 nM
  Fold Increase in ED50 in U87MG Cells: −0.3 ± 0.3
[6]; [6] = 10 nM
  Fold Increase in ED50 in U87MG Cells: −0.6 ± 0.6
[6]; [6] = 100 nM
  Fold Increase in ED50 in U87MG Cells: 0.6 ± 1.0
[6]; [6] = 1000 nM
  Fold Increase in ED50 in U87MG Cells: 1.2 ± 1.2
[6]; [6] = 10000 nM
  Fold Increase in ED50 in U87MG Cells: 8.1 ± 5.4
[7]
  IC50: 1.5 ± 0.2 nM
